Test results published in patent US20250228824A1, “COMPOSITIONS AND METHODS FOR INHIBITION OF ITO AS TREATMENT FOR THE J WAVE SYNDROMES AND HYPOTHERMIA” (Lankenau Institute for Medical Research, priority 2021, published 2025).

Columns and labels:
KV4.3 (Ito) = target: T1, KV4.3 (Ito) (Canis lupus familiaris, UniProt A0A8I3NA05); test: Whole-cell patch clamp of Ito in dissociated canine ventricular epicardial myocytes; assay type: cell-based
T1 sequence (A0A8I3NA05 1-655): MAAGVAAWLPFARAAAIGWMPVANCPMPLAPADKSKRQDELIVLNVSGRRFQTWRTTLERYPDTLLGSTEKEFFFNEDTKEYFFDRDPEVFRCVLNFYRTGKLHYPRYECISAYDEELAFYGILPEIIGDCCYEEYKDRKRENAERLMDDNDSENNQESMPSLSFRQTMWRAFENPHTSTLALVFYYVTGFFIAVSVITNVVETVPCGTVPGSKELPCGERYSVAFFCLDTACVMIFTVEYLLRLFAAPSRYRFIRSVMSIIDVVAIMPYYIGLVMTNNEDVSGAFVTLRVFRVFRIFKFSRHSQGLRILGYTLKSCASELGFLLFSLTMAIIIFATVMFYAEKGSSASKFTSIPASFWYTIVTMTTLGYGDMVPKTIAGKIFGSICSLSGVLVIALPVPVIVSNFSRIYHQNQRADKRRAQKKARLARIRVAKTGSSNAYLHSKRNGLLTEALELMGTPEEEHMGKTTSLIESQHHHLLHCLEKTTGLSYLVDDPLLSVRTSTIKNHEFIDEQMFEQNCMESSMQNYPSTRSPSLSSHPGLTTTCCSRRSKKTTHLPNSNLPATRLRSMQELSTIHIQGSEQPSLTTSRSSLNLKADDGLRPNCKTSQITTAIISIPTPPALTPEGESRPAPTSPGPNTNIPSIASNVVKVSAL
Method: Single myocytes were isolated from coronary-perfused canine right or left ventricular wedge preparations via enzymatic dissociation. Briefly, the wedge preparations were coronary perfused with nominally Ca^+2-free Tyrode's solution for a period of 15 min. They were then subjected to enzymatic digestion in nominally Ca^2+-free solution supplemented with 0.6 mg/ml collagenase (type II; Worthington) and 0.075 mg/ml protease (type XIV; Sigma) for 25-35 min. The wedge preparation was then perfused for 15 min with a taurine buffer solution containing (in mM): 108 NaCl, 10 HEPES, 11 D-glucose, 4 KCl, 1.2 MgSO4, 1.2 NaH2PO4, 50 taurine and 0.025 CaCl2. pH was adjusted to 7.4 using NaOH. After perfusion, thin slices of tissue were cut from the epicardial surface to obtain single epicardial cells as previously described.^6
Ito and APs were measured in isolated RV or LV myocytes. APs were measured in the current-clamp mode in the whole-cell configuration. APs were initiated using intracellular current injection and recorded continuously by means of Clampex software (Axon Instruments/Molecular Devices) at a sampling frequency of […]. Ito was measured using the Axopatch 200B-2 amplifier in V-Clamp mode.
Ito was recorded in isolated ventricular epicardial cells at 37° C. using whole-cell patch clamp techniques. Ito was elicited using a series of 350 ms voltage steps between −50 mV and +40 mV from a holding potential of −90 mV. A 15 ms prepulse to −20 mV was used to discharge the sodium current. Interpulse interval was 50 ms. The amplitude of Ito was determined by subtracting […] at the end of the pulse. The total charge carried by Ito was determined by calculating the area under the Ito current waveform. The extracellular solution contained (in mM): 140 NaCl, 4 KCl, 1.8 CaCl2, 1.2 MgCl2, 10 HEPES, and 10 glucose, pH 7.4 (adjusted with NaOH). The intracellular solution contained (in mM): 120 KCl, 1.5 MgCl2, 10 HEPES, 0.5 EGTA, 0.01 CaCl2, 5 MgATP, pH 7.2 (adjusted with NaOH). Following baseline measurements, recordings was repeated during exposure to AR-787.

[1] = tested on: coronary-perfused canine right ventricular (RV) wedge models of JWS, hypothermia; test: Coronary-perfused RV wedge model of hypothermia (NS5806 plus decreasing temperature); conditions: NS5806 2 μM, 32.7±0.5° C., AR-787 10 μM, 20 min
Method: Transmural wedges were dissected from the base of the RV and LV. During the cannulation procedure, preparations were initially arterially perfused with cardioplegic solution. Next, the wedge preparations were placed in a tissue bath and perfused with a modified Krebs-Henseleit solution (K—H) bubbled with 95% O2/5% CO2 warmed to 37° C. The composition of K—H was (in mM): 118 NaCl, 4 KCl, 2 CaCl2, 1.2 MgSO4, 24 NaHCO3, 1.2 NaH2PO4, 2 Na Pyruvate and 10 D-Glucose. The perfusate was delivered at a constant pressure (45-50 mmHg). A transmural pseudo-ECG (ECG) was recorded using two Ag/AgCl half cells placed at ˜1 cm from the Epi (+) and Endo (−) surfaces along the same axis as the transmembrane action potential (AP) recordings. APs were simultaneously recorded from the immediate sub-Epi and M cell region (˜2-3 mm from the Endo surface) using floating glass microelectrodes. […] A detailed description of the arterially-perfused ventricular wedge preparation has been previously published.^5 ECG and AP signals were digitized and analyzed using Spike 2 for Windows (Cambridge Electronic Design, Cambridge, UK). […]
FIG. 9A-9C show the ability of AR-787 to suppress the ECG and arrhythmic manifestations in a model of hypothermia. […] The third grouping was recorded 10 minutes after lowering the temperature of the perfusate to 32.7±0.5° C. […] The fourth column was recorded 20 min after addition of AR-787 (10 μM).

- inhibition at 1 µM (KV4.3 (Ito); 1 μM, at +20 mV, 37° C., read-out: reduction of Ito density): 34%
- inhibition at 10 µM (KV4.3 (Ito); 10 μM, at +20 mV, 37° C., read-out: reduction of Ito density): 68%
- inhibition at 50 µM (KV4.3 (Ito); 50 μM, at +20 mV, 37° C., read-out: reduction of Ito density): 85.2%
- IC50 (KV4.3 (Ito); estimated, read-out: IC50 for Ito inhibition): ~8 µM
SMILES: Cc1nc(-n2cccc2)sc1C(=O)N=c1[nH]c2ccccc2[nH]1 [AR-787, N-(1H-benzimidazol-2-yl)-4-methyl-2-pyrrol-1-yl-thiazole-5-carboxamide]
- hypothermia-induced AP notch, J wave, phase 2 reentry and pVT [1]: diminished the action potential (AP) notch and J wave
